Reference: patent US11535621B2, “Heterobicyclic amides as inhibitors of CD38” (Ribon Therapeutics, Inc., priority 2019, dated 2022)

Each compound was assayed against Human CD38 (Homo sapiens (Human), UniProt P28907) (assay: CD38 enzyme assay). Conditions: 2 nM CD38, NAD+ substrate, absorbance at 405 nm.
Assay type: biochemical
In short: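 IC50 values come from fitting % inhibition against compound concentration with a 4-parameter logistic, or a 3-parameter fit with top/bottom fixed at 100/0 or Hill at 1. Inhibition is scaled between DMSO wells and positive-control wells treated with a quinolinone CD38 inhibitor.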

Sequence of Human CD38 (P28907 whole entry): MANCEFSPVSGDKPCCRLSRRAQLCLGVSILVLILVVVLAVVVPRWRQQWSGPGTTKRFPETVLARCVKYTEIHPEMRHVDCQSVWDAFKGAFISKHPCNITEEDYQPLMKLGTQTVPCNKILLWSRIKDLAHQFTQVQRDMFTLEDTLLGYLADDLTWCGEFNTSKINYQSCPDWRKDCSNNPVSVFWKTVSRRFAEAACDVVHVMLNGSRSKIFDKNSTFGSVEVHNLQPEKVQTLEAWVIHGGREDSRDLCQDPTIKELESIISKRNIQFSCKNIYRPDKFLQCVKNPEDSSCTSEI

| Structure (SMILES) | IC50 |
| --- | --- |
| N#Cc1ccc(NC(=O)c2nc(-n3ccnc3)nc3cc[nH]c23)cc1 [Example 130] | < 0.01 µM |
| COCCOc1ccc(NC(=O)c2nc(-n3ccnc3)nc3cc[nH]c23)cc1F [Example 131] | < 0.01 µM |
| O=C(Nc1ccc(Cl)nc1)c1nc(-n2ccnc2)nc2cc[nH]c12 [Example 137] | < 0.01 µM |
| O=C(Nc1ccncc1)c1nc(-n2ccnc2)nc2cc[nH]c12 [Example 138] | < 0.01 µM |
| CC(C)(O)[C@H]1CC[C@H](NC(=O)c2nc(-n3ccnc3)nc3cc[nH]c23)CC1 [Example 139] | 0.01 to 0.1 µM |
| O=C(Nc1ccnc(Cl)c1)c1nc(-n2ccnc2)nc2cc[nH]c12 [Example 140] | < 0.01 µM |
| O=C(Nc1cncc(Cl)c1)c1nc(-n2ccnc2)nc2cc[nH]c12 [Example 141] | < 0.01 µM |
| O=C(NC1CCN(C(=O)CN2CCOCC2)CC1)c1nc(-n2ccnc2)nc2cc[nH]c12 [Example 143] | 0.01 to 0.1 µM |
| O=C(Nc1cccc(Cl)n1)c1nc(-n2ccnc2)nc2cc[nH]c12 [Example 144] | < 0.01 µM |
| O=C(Nc1ccc(OCCN2CCOCC2)nc1)c1nc(-n2ccnc2)nc2cc[nH]c12 [Example 145] | < 0.01 µM |
| O=C(Nc1ccncn1)c1nc(-n2ccnc2)nc2cc[nH]c12 [Example 150] | < 0.01 µM |
| O=C(NC1CCC(F)(F)CC1)c1nc(-n2ccnc2)nc2nc[nH]c12 [Example 152] | 0.01 to 0.1 µM |
| O=C(N[C@H]1CC[C@H](N2CCOCC2)CC1)c1nc(-n2ccnc2)nc2cc[nH]c12 [Example 155] | 0.01 to 0.1 µM |
| O=C(Nc1cnc(OCCN2CCOCC2)c(Cl)c1)c1nc(-n2ccnc2)nc2cc[nH]c12 [Example 156] | < 0.01 µM |
| O=C(NCCC1CCC(F)(F)CC1)c1nc(-n2ccnc2)nc2cc[nH]c12 [Example 157] | 0.01 to 0.1 µM |
| O=C(Nc1ccc(N2CCC(N3CCOCC3)CC2)nc1)c1nc(-n2ccnc2)nc2cc[nH]c12 [Example 158] | 0.01 to 0.1 µM |

| Structure (SMILES) | IC50 |
| --- | --- |
| O=C(N[C@H]1CC[C@H](C(F)(F)F)CC1)c1nc(-n2ccnc2)nc2cn[nH]c12 [Example 160] | 0.01 to 0.1 µM |
| COCCN1CCc2ccc(NC(=O)c3nc(-n4ccnc4)nc4cc[nH]c34)cc2C1 [Example 163] | 0.01 to 0.1 µM |
| N#C[C@H]1CC[C@H](CNC(=O)c2nc(-n3ccnc3)nc3cc[nH]c23)CC1 [Example 166] | 0.01 to 0.1 µM |
| O=C(N[C@H]1CC[C@H](OC(F)(F)F)CC1)c1nc(-n2ccnc2)nc2cc[nH]c12 [Example 167] | 0.01 to 0.1 µM |
| O=C(N[C@H]1CC[C@H](F)CC1)c1nc(-n2ccnc2)nc2cc[nH]c12 [Example 168] | 0.01 to 0.1 µM |
| O=C(N[C@H]1CC[C@@H](N2CCOCC2)CC1)c1nc(-n2ccnc2)nc2cc[nH]c12 [Example 169] | 0.1 to 1 µM |
| CNC(=O)[C@H]1CC[C@H](NC(=O)c2nc(-n3ccnc3)nc3cc[nH]c23)CC1 [Example 170] | 0.01 to 0.1 µM |
| O=C(N[C@H]1CC[C@H](C(F)(F)F)CC1)c1nc(-n2ccnc2)cc2cn[nH]c12 [Example 171] | < 0.01 µM |
| C[C@]1(O)CC[C@@H](NC(=O)c2nc(-n3ccnc3)nc3cc[nH]c23)CC1 [Example 175] | < 0.01 µM |
| C[C@]1(O)CC[C@H](NC(=O)c2nc(-n3ccnc3)nc3cc[nH]c23)CC1 [Example 176] | 0.01 to 0.1 µM |
| O=C(N[C@H]1CC[C@H](O)CC1)c1nc(-n2ccnc2)nc2cc[nH]c12 [Example 177] | < 0.01 µM |
| COCCN1CCc2cc(NC(=O)c3nc(-n4ccnc4)nc4cc[nH]c34)ccc2C1 [Example 179] | 0.01 to 0.1 µM |
| CO[C@H]1CC[C@H](NC(=O)c2nc(-n3ccnc3)nc3cn[nH]c23)CC1 [Example 183] | < 0.01 µM |
| Cc1cc2nc(-n3ccnc3)nc(C(=O)N[C@H]3CC[C@H](C(C)(C)O)CC3)c2[nH]1 [Example 184] | < 0.01 µM |
| N#CC[C@H]1CC[C@H](NC(=O)c2nc(-n3ccnc3)nc3cc[nH]c23)CC1 [Example 185] | < 0.01 µM |
| COC(C)(C)[C@H]1CC[C@H](NC(=O)c2nc(-n3ccnc3)nc3cc[nH]c23)CC1 [Example 187] | 0.01 to 0.1 µM |

The remaining lines, values ahead:

| IC50 | Structure (SMILES) |
| --- | --- |
| 0.01 to 0.1 µM | CN(C)CCOc1ccc(NC(=O)c2nc(-n3ccnc3)nc3cc[nH]c23)nc1 [Example 129] |
| < 0.01 µM | COCn1cc(NC(=O)c2nc(-n3ccnc3)nc3cc[nH]c23)cn1 [Example 132] |
| 0.01 to 0.1 µM | CN(C)CCOCCO[C@H]1CC[C@H](NC(=O)c2nc(-n3ccnc3)nc3cc[nH]c23)CC1 [Example 133] |
| < 0.01 µM | O=C(Nc1ccc(Cl)cn1)c1nc(-n2ccnc2)nc2cc[nH]c12 [Example 134] |
| 0.01 to 0.1 µM | CC1(NC(=O)c2nc(-n3ccnc3)nc3cc[nH]c23)CCOCC1 [Example 135] |
| < 0.01 µM | CO[C@H]1CC[C@H](NC(=O)c2nc(-n3ccnc3)nc3ccsc23)CC1 [Example 136] |
| < 0.01 µM | O=C(Nc1cc(Cl)ccn1)c1nc(-n2ccnc2)nc2cc[nH]c12 [Example 142] |
| 0.01 to 0.1 µM | CN(C)C(=O)CO[C@H]1CC[C@H](NC(=O)c2nc(-n3ccnc3)nc3cc[nH]c23)CC1 [Example 146] |
| 0.01 to 0.1 µM | O=C(N[C@H]1CC[C@H](C(F)(F)F)CC1)c1nc(-n2ccnc2)nc2nc[nH]c12 [Example 147] |
| < 0.01 µM | N#C[C@H]1CC[C@H](NC(=O)c2nc(-n3ccnc3)nc3cc[nH]c23)CC1 [Example 148] |
| < 0.01 µM | O=C(NC1CCC(F)(F)CC1)c1nc(-n2ccnc2)nc2ccsc12 [Example 149] |
| < 0.01 µM | CN(C)CCOc1ccc(NC(=O)c2nc(-n3ccnc3)nc3ccsc23)cn1 [Example 151] |
| < 0.01 µM | O=C(Nc1cncnc1)c1nc(-n2ccnc2)nc2cc[nH]c12 [Example 153] |
| < 0.01 µM | CN1CCN(c2ccc(NC(=O)c3nc(-n4ccnc4)nc4cc[nH]c34)cn2)CC1 [Example 154] |
| < 0.01 µM | O=C(NC1CCC(F)(F)CC1)c1nc(-n2ccnc2)nc2cn[nH]c12 [Example 159] |
| 0.01 to 0.1 µM | O=C(N[C@H]1CC[C@@H](C(F)(F)F)CC1)c1nc(-n2ccnc2)nc2cn[nH]c12 [Example 161] |
| < 0.01 µM | O=C(Nc1ccon1)c1nc(-n2ccnc2)nc2cc[nH]c12 [Example 162] |
| 0.01 to 0.1 µM | O=C(NC1(c2ccccc2)CC1)c1nc(-n2ccnc2)nc2cc[nH]c12 [Example 164] |
| 0.01 to 0.1 µM | COCCOc1ncc(NC(=O)c2nc(-n3ccnc3)nc3cc[nH]c23)cn1 [Example 165] |
| 0.01 to 0.1 µM | CC(=O)N1CC2CC1CC2NC(=O)c1nc(-n2ccnc2)nc2cc[nH]c12 (centres unmarked) [Example 172] |
| < 0.01 µM | Cc1cc2nc(-n3ccnc3)nc(C(=O)NC3CCC(F)(F)CC3)c2[nH]1 [Example 173] |
| < 0.01 µM | O=C(N[C@H]1CC[C@H](CO)CC1)c1nc(-n2ccnc2)nc2cc[nH]c12 [Example 174] |
| 0.01 to 0.1 µM | O=C(N[C@H]1CC[C@H](N2CCCS2(=O)=O)CC1)c1nc(-n2ccnc2)nc2cc[nH]c12 [Example 178] |
| 0.01 to 0.1 µM | O=C(N[C@H]1CC[C@H](NCCC(F)F)CC1)c1nc(-n2ccnc2)nc2cc[nH]c12 [Example 180] |
| 0.1 to 1 µM | O=C(N[C@H]1CC[C@@H](NCCC(F)F)CC1)c1nc(-n2ccnc2)nc2cc[nH]c12 [Example 181] |
| < 0.01 µM | CC(C)(O)[C@H]1CC[C@H](NC(=O)c2nc(-n3ccnc3)nc3cn[nH]c23)CC1 [Example 182, N-((1r,4r)-4-(2-hydroxypropan-2-yl)cyclohexyl)-5-(1H-imidazol-1-yl)-1H-pyrazolo[4,3-d]pyrimidine-7-carboxamide] |
| 0.01 to 0.1 µM | O=C(N[C@H]1CC[C@@H](O)CC1)c1nc(-n2ccnc2)nc2cc[nH]c12 [Example 186] |
